The source of these data is article PMC11582173, “Synthesis, cytotoxicity, anti-inflammatory, anti-metastatic and anti-oxidant activities of novel chalcones incorporating 2-phenoxy-N-arylacetamide and thiophene moieties: induction of apoptosis in MCF7 and HEP2 cells” (Naunyn-Schmiedeberg's Archives of Pharmacology, 2024).

The test concerns COX-2 gene. The experiment in a line: Real-time PCR, COX-2 gene expression. In kind it is cell-based, human. Particulars: relative to untreated control (1). The protocol: The expression level of the following six genes (Ki-67, Survivin, Interleukin-1 beta (IL-1B), Interleukin-6 (IL-6), Cyclooxygenase-2 (COX-2) and protein kinase B (AKT1)) was determined in MCF7 and HEP2 treated with the IC50 of compound 5c. The untreated cells were used as a negative control for comparison purposes. […] Ki-67 is a popular proliferation marker for human tumor cells. […] Survivin is an inhibitor of apoptotic protein (IAP) family member, which is essential for cell division. The lowering of the expression of survivin inhibited tumor development, triggered apoptosis, and made tumor cells more susceptible to radiation and chemotherapy (Albadari and Li [2023]). […] IL-1B is a pleiotropic mediator of inflammation, which is produced in response to a variety of stressors (Aarreberg et al. [2019]). […] IL-6 is a pro-inflammatory cytokine that plays a significant role in the proliferation and differentiation of human cells. It promotes the production of numerous proteins involved in acute inflammation (Uciechowski and Dempke [2020]). […]
The expression level of the following six genes (Ki-67, survivin, AKT1, IL-6, COX2, and IL-1B) was examined using real-time polymerase chain reaction (qPCR) (Mohamed et al. [2023a]). […] The cycle threshold (Ct) was determined automatically. […]
On the technique in general: In qPCR the cycle at which signal appears reflects the starting amount.

Structures are written as SMILES.

In the case of `COc1ccc(NC(=O)COc2ccc(C=CC(=O)c3cccs3)cc2)cc1` [Compound 5c, N-(4-Methoxyphenyl)-2-(4-(3-oxo-3-(thiophen-2-yl)prop-1-en-1-yl)phenoxy)acetamide], the COX2 expression folding (HEP2 cells treated with IC50 of 5c) was 0.547±0.0321 fold and the COX2 expression folding (MCF7 cells treated with IC50 of 5c) was 0.502±0.073 fold.
